Source: ChEMBL document CHEMBL3301361, “Experimental in vitro DMPK and physicochemical data on a set of publicly disclosed compounds”
≈ marks a conversion by molar mass, not a printed value.

Experiments:
[1] = physchem; conditions: pH 7.4 buffer
[2] = physchem; conditions: octan-1-ol/water

| SMILES | solubility thermodynamic [1] | logD ([2]; pH 7.4, LogD7.4) | logD ([2]; pH 7.4) |
| --- | --- | --- | --- |
| COc1ccc(Nc2cc(Nc3ccc(OCC(O)CN(C)C)cc3)ncn2)cc1 (stereo unspecified) | 12 µM (≈ 4.91 µg/mL) | 1.5 | – |
| CCOC(=O)N1CCN(C(=O)[C@H](Cc2cccc(C(=N)N)c2)NS(=O)(=O)c2c(C(C)C)cc(C(C)C)cc2C(C)C)CC1 | 692 µM (≈ 425 µg/mL) | 1.67 | – |
| O=C(O)CC(=O)N[C@@H]1c2ccccc2C[C@H]1NC(=O)c1cc2sc(Cl)c(Cl)c2[nH]1 | 1170 µM (≈ 531 µg/mL) | 1.18 | – |
| CCc1ccc(NC(=O)c2ccc3cc(C(=N)N)ccc3c2)cc1 | 8.5 µM (≈ 2.7 µg/mL) | 1.1 | – |
| Cc1cc(NC(=O)c2ccccc2)n[nH]1 | 813 µM (≈ 164 µg/mL) | 1.75 | – |
| Cc1nc(CS(=O)(=O)c2ccc(Cl)cc2)cc(N2CCOCC2)n1 | 224 µM (≈ 82.4 µg/mL) | 1.8 | – |
| Cc1onc(CO)c1C(=O)Nc1nccs1 | 144 µM (≈ 34.6 µg/mL) | 1.53 | – |
| O=S(=O)(c1cccc(-c2cn3cccnc3n2)c1)N1CCOCC1 | 39.8 µM (≈ 13.7 µg/mL) | 1.3 | – |
| CCOC(=O)Cc1csc(NS(=O)(=O)c2ccc(Cl)cc2)n1 | 417 µM (≈ 150 µg/mL) | 1.32 | – |
| Oc1cc(OCc2ccccc2)ccn1 | 1230 µM (≈ 248 µg/mL) | 1.69 | – |
| O=C1CN(C(=O)c2ccco2)c2ccccc2N1 | 269 µM (≈ 65.2 µg/mL) | 1.21 | – |
| CNC(=O)c1ccc2c(=O)cc(-c3cccnc3)[nH]c2c1 | 309 µM (≈ 86.3 µg/mL) | 1.01 | – |
| CC(=O)c1ccc2[nH]c(-c3cccnc3)cc(=O)c2c1 | 126 µM (≈ 33.3 µg/mL) | 1.41 | – |
| Cc1nc2nc(-c3cccnc3)nn2c(O)c1Cc1ccccc1 | 29.5 µM (≈ 9.36 µg/mL) | 1.52 | – |
| COC[C@H](C)Oc1cc(Oc2cc(F)cc(F)c2)cc(C(=O)Nc2ccc(C(=O)O)cn2)c1 | 832 µM (≈ 381 µg/mL) | 1.36 | – |
| Cc1cc(CCC2CCN(S(=O)(=O)CC3(N(O)C=O)CCOCC3)CC2)c(C)cn1 | 1100 µM (≈ 482 µg/mL) | 1.43 | – |
| O=CN(O)C1(CS(=O)(=O)N2CCN(c3ccc(F)cc3)CC2)CCC1 | 490 µM (≈ 182 µg/mL) | 1.34 | – |
| O=CN(O)C1(CS(=O)(=O)N2CCN(c3ccc(F)cc3)CC2)CCOCC1 | 1380 µM (≈ 554 µg/mL) | 0.85 | – |
| Cc1cn(C[C@H]2CN(c3ccc(C4=CCS(=O)(=O)CC4)c(F)c3)C(=O)O2)nn1 | 372 µM (≈ 151 µg/mL) | 1.25 | – |
| COc1cc(OC2CCNCC2)ccc1Nc1ncc(Cl)c(-c2cnc3ccccn23)n1 | 30.9 µM (≈ 13.9 µg/mL) | 1.8 | – |
| CC1CN(C(=O)c2ccccc2)c2ccccc2NC1=O (stereo unspecified) | 1200 µM (≈ 337 µg/mL) | 1.73 | – |
| Cc1ccc(S(=O)(=O)Nc2c(C(=O)NC3CCCCC3)cnn2-c2ccccc2)cc1 | 490 µM (≈ 215 µg/mL) | 0.8 | – |
| CNc1cccc(CCCc2ccc(C[C@H](NC(=O)c3c(Cl)cccc3Cl)C(=O)O)s2)n1 | 331 µM (≈ 163 µg/mL) | 0.78 | – |
| Cc1ccc(NC(=O)c2cccnc2)cc1-n1cnc2ccc(N3CCN(C)CC3)cc2c1=O | 251 µM (≈ 114 µg/mL) | 1.5 | – |
| O=C(Nc1nnc(C(=O)Nc2ccc(N3CCOCC3)cc2)o1)c1ccccc1 | 105 µM (≈ 41.2 µg/mL) | 1.02 | – |
| CNC(=O)Nc1nc2ccc(-c3cncc(S(=O)(=O)NC(C)(C)C)c3)cn2n1 | 87.1 µM (≈ 35.1 µg/mL) | 1.58 | – |

| SMILES | solubility thermodynamic [1] | logD ([2]; pH 7.4, LogD7.4) | logD ([2]; pH 7.4) |
| --- | --- | --- | --- |
| COc1cc(OC)nc(-n2ncc(Cl)c(Cl)c2=O)n1 | 70.8 µM (≈ 21.5 µg/mL) | 1.4 | – |
| CCCSc1nc(Oc2ccc(CC(=O)O)cc2)ccc1C(=O)NC1CCCCC1 | 550 µM (≈ 235 µg/mL) | 1.79 | – |
| CCCSc1nc(N2CCC(C(=O)O)CC2)ccc1C(=O)NC1CCCCC1 | 309 µM (≈ 125 µg/mL) | 1.6 | – |
| CS(=O)(=O)c1ccc2[nH]c3c(c2c1)CN(C(=O)[C@@H]1CCCC[C@H]1C(=O)NC1(C#N)CC1)CC3 | 190 µM (≈ 89.3 µg/mL) | 1.5 | – |
| Cc1nc(C)c(-c2ccc(C34CCC(CC(=O)O)(CC3)CC4)cc2)nc1C(N)=O | 112 µM (≈ 44.1 µg/mL) | 1.6 | – |
| Cc1nc(C)c(-c2ccc([C@H]3CC[C@H](CCC(=O)O)CC3)cc2)nc1C(N)=O | 200 µM (≈ 76.1 µg/mL) | 1.6 | – |
| Cc1nc(C)c(-c2ccc([C@H]3CC[C@H](CC(=O)O)CC3)c(Cl)c2)nc1C(N)=O | 209 µM (≈ 84 µg/mL) | 1.8 | – |
| Cc1nc(C)c(-c2ccc([C@H]3CC[C@@H](CC(=O)O)CC3)c(F)c2)nc1C(N)=O | 759 µM (≈ 292 µg/mL) | 1.2 | – |
| Cc1nc(C)c(-c2ccc([C@H]3CC[C@@H](CC(=O)O)CC3)c(Cl)c2)nc1C(N)=O | 200 µM (≈ 80.2 µg/mL) | 1.7 | – |
| Cc1ncc(-c2ccc([C@H]3CC[C@H](CC(=O)O)CC3)cc2)nc1C(N)=O | 372 µM (≈ 131 µg/mL) | 1 | – |
| CN1CC(n2nccc2-c2cc(Cl)ccc2Oc2cc(F)c(S(=O)(=O)Nc3ncns3)cc2F)C1 | 47.9 µM (≈ 25.8 µg/mL) | 1 | – |
| CS(=O)(=O)C1(c2cc(N3CCOCC3)nc(-c3cccc4[nH]ccc34)n2)CCNCC1 | 234 µM (≈ 104 µg/mL) | 0.7 | – |
| CNC(=O)c1cc(-c2nc(N3CCOCC3)cc(C3(S(C)(=O)=O)CC3)n2)c2cc[nH]c2c1 | 46.8 µM (≈ 21.3 µg/mL) | 1.7 | – |
| CC(C)(C)Cn1c(CN2C(=O)CC3(CCNCC3)C2=O)cc2cnc(C#N)nc21 | 575 µM (≈ 227 µg/mL) | 0.75 | – |
| CCCNCc1cnc(-c2ccc(C(=O)Nc3ccccc3N)cc2)s1 | 676 µM (≈ 248 µg/mL) | 1.75 | – |
| Cn1sc(NCc2ccccc2)nc1=O | 1510 µM (≈ 335 µg/mL) | 1.2 | – |
| O=c1[nH][nH]c(=O)c2c1[nH]c1cc(Cl)cc(Cl)c12 | 57.5 µM (≈ 15.5 µg/mL) | 1.02 | – |
| CCN(CC)C(=O)Cc1csc(NS(=O)(=O)c2cccc(Cl)c2C)n1 | 40.7 µM (≈ 16.4 µg/mL) | 1.67 | – |
| Cc1c(CCC(=O)O)c[nH]c1/C=C1\C(=O)Nc2ccccc21 | 209 µM (≈ 61.9 µg/mL) | 1.05 | – |
| Cn1c(=O)c2[nH]c(-c3cccnc3)nc2n(C)c1=O | 219 µM (≈ 56.3 µg/mL) | 0.7 | – |
| CSc1ccc(OCc2ccccc2)c(C(=O)Nc2ccc(C(=O)O)cn2)c1 | 200 µM (≈ 78.7 µg/mL) | 1.6 | – |
| CC(C)Oc1cc(OCCc2ccsc2)cc(C(=O)Nc2ccc(C(=O)O)cn2)c1 | 33.9 µM (≈ 14.5 µg/mL) | 1.74 | – |
| CC(C)COc1cc(OC(C)C)cc(C(=O)Nc2ccc(C(=O)O)cn2)c1 | 190 µM (≈ 70.9 µg/mL) | 1.6 | – |
| CCc1cc(OCc2ccc(-c3ccccc3-c3nnn[nH]3)cc2)c2c(n1)CCCC2 | 23.4 µM (≈ 9.63 µg/mL) | 1.7 | – |
| NC(=O)Nc1sc(-c2ccc(CNC3CCCC3)cc2)cc1C(N)=O | 479 µM (≈ 172 µg/mL) | 1.22 | – |
| CCn1c2nc(=O)n(C)c(=O)c-2cc2ccccc21 | 324 µM (≈ 82.6 µg/mL) | 1.1 | – |

| SMILES | solubility thermodynamic [1] | logD ([2]; pH 7.4, LogD7.4) | logD ([2]; pH 7.4) |
| --- | --- | --- | --- |
| CC1(C)Oc2ncnc(N)c2N=C1c1ccc([C@H]2CC[C@H](CC(=O)O)CC2)cc1 | 118 µM (≈ 46.4 µg/mL) | 1.32 | – |
| Nc1nccc(-c2c[nH]c3ccccc23)n1 | 575 µM (≈ 121 µg/mL) | 1.68 | – |
| Cc1ncc(-c2ccnc(Nc3ccc(S(N)(=O)=O)cc3)n2)n1C | 36.3 µM (≈ 12.5 µg/mL) | 1.6 | – |
| NC(=O)COc1ccc(OCCNCC(O)COc2ccccc2)cc1 (stereo unspecified) | 661 µM (≈ 238 µg/mL) | 0.63 | – |
| O=C(c1cc(Cc2n[nH]c(=O)c3ccccc23)ccc1F)N1CCN(C(=O)C2CCOC2)CC1 (stereo unspecified) | 380 µM (≈ 177 µg/mL) | 0.8 | – |
| Nc1nc(N)c2nc(-c3ccccc3)c(N)nc2n1 | 97.7 µM (≈ 24.7 µg/mL) | 1.16 | – |
| CC1(C)N=C(N)N=C(N)N1c1ccc(Oc2ccc(Cl)cc2)c(Cl)c1 | 372 µM (≈ 141 µg/mL) | 0.79 | – |
| CS(=O)(=O)c1ccc(C(=O)Nc2ccc(F)cc2)c[n+]1[O-] | 219 µM (≈ 67.9 µg/mL) | 0.84 | – |
| COc1cc(C(=O)NS(=O)(=O)c2ccccc2)ccc1Cn1ncc2ccc(NC(=O)CC3CCCC3)cc21 | 251 µM (≈ 137 µg/mL) | 1.6 | – |
| Cc1c[nH]c(/C=C2\C(=O)Nc3ccccc32)c1CCC(=O)O | 447 µM (≈ 132 µg/mL) | 1.2 | – |
| CN(C)CC(O)COc1ccc(Nc2nccc(Nc3ccccc3C#N)n2)cc1 (stereo unspecified) | 1100 µM (≈ 444 µg/mL) | 1.2 | – |
| Nc1cccc(NC(=O)c2ccc(CNC(=O)OCc3cccnc3)cc2)c1 | 21.9 µM (≈ 8.24 µg/mL) | 1.6 | – |
| Nc1ccc(OCc2ccccc2)cc1 [4-BENZYLOXYANILINE] | 468 µM (≈ 93.2 µg/mL) | 2.2 | – |
| Nc1ncnc2c1ncn2Cc1ccccc1 [9-BENZYL-9H-ADENINE] | 246 µM (≈ 55.3 µg/mL) | 1.53 | – |
| CN(C)C/C=C/C(=O)Nc1cc2c(Nc3ccc(F)c(Cl)c3)ncnc2cc1O[C@H]1CCOC1 [AFATINIB] | 93.3 µM (≈ 45.3 µg/mL) | 3.7 | – |
| Nc1ncnc(Nc2ccccc2)n1 [AMANOZINE] | 246 µM (≈ 46 µg/mL) | 1.4 | – |
| O=C1CN2Cc3c(ccc(Cl)c3Cl)N=C2N1 [ANAGRELIDE] | 5.4 µM (≈ 1.38 µg/mL) | 1.86 | – |
| CNC(=O)c1ccccc1Sc1ccc2c(/C=C/c3ccccn3)n[nH]c2c1 [AXITINIB] | 0.5 µM (≈ 0.193 µg/mL) | 3.8 | – |
| Cc1ccc(C(=O)Oc2ccc(C(O)CNC(C)(C)C)cc2OC(=O)c2ccc(C)cc2)cc1 (stereo unspecified) [BITOLTEROL] | 81.3 µM (≈ 37.5 µg/mL) | 3.57 | – |
| Cc1ccc2nc(NCCN)c3ncc(C)n3c2c1 [BMS-345541] | 246 µM (≈ 62.7 µg/mL) | 0.88 | – |
| Cc1cc2c(F)c(Oc3ncnn4cc(OC[C@@H](C)OC(=O)[C@H](C)N)c(C)c34)ccc2[nH]1 [BRIVANIB ALANINATE] | 37.2 µM (≈ 16.4 µg/mL) | 3.19 | – |
| NC1=NN(c2cccc(C(F)(F)F)c2)CC1 [BW-755C] | 1450 µM (≈ 331 µg/mL) | 2.55 | – |
| CC1(COc2ccc3c(c2)ncn3-c2ccc3cccc(N4CCC(N)CC4)c3n2)COC1 [CRENOLANIB] | 5.1 µM (≈ 2.26 µg/mL) | 1.99 | – |
| c1ccc(Nc2ccccc2)cc1 [DIPHENYLAMINE] | 178 µM (≈ 30.1 µg/mL) | 3.2 | – |
| Cc1oc(-c2ccccc2)nc1CCOc1ccc(C[C@H](Nc2ccccc2C(=O)c2ccccc2)C(=O)O)cc1 [FARGLITAZAR] | 35.5 µM (≈ 19.4 µg/mL) | 3.5 | – |
| CC1CCc2cc(F)cc3c(=O)c(C(=O)O)cn1c23 (stereo unspecified) [FLUMEQUINE] | 776 µM (≈ 203 µg/mL) | – | 0.74 |
